Measured values as given in patent EP4289427A1, “DIHYDRO[1,8]NAPHTHYRIDIN-7-ONE AND PYRIDO[3,2-B][1,4]OXAZIN-3-ONE FOR USE IN TREATING CANCER, AND METASTASES IN PARTICULAR” (Anagenesis Biotechnologies, priority 2022, dated 2023).

How the values were obtained:
RD cells = assay: Cytotoxicity assay (CellTiter-Glo 2.0) on RD cells; format: cell-based, Human; conditions: for IC50: Homo sapiens; on Cytotoxicity: test concentration or dose not given here
How it was run: (§1)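 Each line is plated at a defined density in its growth medium and treated with test compounds for a duration set per cell line. Remaining viability is then measured by CellTiter-Glo 2.0 ATP luminescence and expressed as relative IC50.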

4T1 cells = assay: Cytotoxicity assay (CellTiter-Glo 2.0) on 4T1 cells; format: cell-based, Mouse; conditions: incubation 2 days; for IC50: Mus musculus, 48 h; on Cytotoxicity: test concentration or dose not given here
How it was run: as §1

MDA-MB-231 cells = assay: Cytotoxicity assay (CellTiter-Glo 2.0) on MDA-MB-231 cells; format: cell-based, Human; conditions: incubation 3 days; for IC50: Homo sapiens, 72 h; on Cytotoxicity: test concentration or dose not given here
How it was run: as §1

EoL-1 cells = assay: Cytotoxicity assay (CellTiter-Glo 2.0) on EoL-1 cells; format: cell-based, Human; conditions: incubation 1 day; for IC50: Homo sapiens, EOL1, 24 h; on Cytotoxicity: test concentration or dose not given here
How it was run: as §1

HUVECs = assay: Tube formation assay (anti-angiogenic activity); format: cell-based, human; conditions: for IC50: Homo sapiens, HUVEC; on Angiogenesis inhibition: test concentration or dose not given here
How it was run: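 HUVECs plated at 5000 cells/well on reduced growth factor basement membrane matrix, then exposed to compounds for 16 to 18 hours at 37°C. Cells stained with calcein-AM; tube networks imaged by confocal fluorescence microscopy and quantified.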

[1] = 2 day-treatment, commercial kinase inhibitors
[2] = 4 day-treatment, commercial kinase inhibitors
[3] = 48 h, 2 day-treatment, commercial kinase inhibitors
[4] = 96 h, 4 day-treatment, commercial kinase inhibitors

| Structure (SMILES) | Cytotoxicity (RD cells; 2 day-treatment) | Cytotoxicity (RD cells; 4 day-treatment) | IC50 (RD cells; 48 h, 2 day-treatment) [µM] | IC50 (RD cells; 96 h, 4 day-treatment) [µM] | IC50 (4T1 cells) [µM] | Cytotoxicity (4T1 cells) | IC50 (MDA-MB-231 cells) [µM] | Cytotoxicity (MDA-MB-231 cells) | IC50 (EoL-1 cells) [µM] | Cytotoxicity (EoL-1 cells) | IC50 (HUVECs; incubation 16 to 18 hours) [µM] | Angiogenesis inhibition (HUVECs; incubation 16 to 18 hours) | other results |
| --- | --- | --- | --- | --- | --- | --- | --- | --- | --- | --- | --- | --- | --- |
| CSc1cc(Oc2ccnc3c2OCC(=O)N3)ccc1NC(=O)Nc1cc(C(C)(C)C)nn1-c1ccc(C)nc1 [Compound 019, 1-[5-tert-butyl-2-(6-methyl-3-pyridyl)pyrazol-3-yl]-3-[2-methylsulfanyl-4-[(3-oxo-4H-pyrido[3,2-b][1,4]oxazin-8-yl)oxy]phenyl]urea] | ++ (50% ≤ cytotoxicity < 85%) | ++ (50% ≤ cytotoxicity < 85%) | 1 to 5 | 1 to 5 | 1 to 5 | +++ (cytotoxicity ≥ 85%) | 1 to 5 | ++ (50% ≤ cytotoxicity < 85%) | 0.001 to 0.01 | +++ (cytotoxicity ≥ 85%) | < 0.1 | +++ (angiogenesis inhibition ≥ 80%) | – |
| CC(C)(C)c1cc(NC(=O)Nc2ccc(Oc3ccnc4c3OCC(=O)N4)cc2C(F)(F)F)n(-c2cncc(F)c2)n1 [Compound 039, 1-[5-tert-butyl-2-(5-fluoro-3-pyridyl)pyrazol-3-yl]-3-[4-[(3-oxo-4H-pyrido[3,2-b][1,4]oxazin-8-yl)oxy]-2-(trifluoromethyl)phenyl]urea] | ++ (50% ≤ cytotoxicity < 85%) | + (20 % ≤ cytotoxicity < 50%) | 1 to 5 | 5 to 10 | < 1 | +++ (cytotoxicity ≥ 85%) | 1 to 5 | ++ (50% ≤ cytotoxicity < 85%) | 0.01 to 0.1 | ++ (50% ≤ cytotoxicity < 85%) | < 0.1 | +++ (angiogenesis inhibition ≥ 80%) | – |
| CSc1cc(Oc2ccnc3c2OCC(=O)N3)ccc1NC(=O)Nc1cc(C(C)(C)C)nn1-c1cccc(CN2CCOCC2)c1 [Compound 035, 1-[5-tert-butyl-2-[3-(morpholinomethyl)phenyl]pyrazol-3-yl]-3-[2-methylsulfanyl-4-[(3-oxo-4H-pyrido[3,2-b][1,4]oxazin-8-yl)oxy]phenyl]urea] | ++ (50% ≤ cytotoxicity < 85%) | ++ (50% ≤ cytotoxicity < 85%) | 1 to 5 | 5 to 10 | 1 to 5 | +++ (cytotoxicity ≥ 85%) | 1 to 5 | +++ (cytotoxicity ≥ 85%) | 0.001 to 0.01 | +++ (cytotoxicity ≥ 85%) | 0.1 to 0.5 | +++ (angiogenesis inhibition ≥ 80%) | – |
| CSc1cc(Oc2ccnc3c2CCC(=O)N3)ccc1NC(=O)Nc1cc(C(C)(C)C)nn1-c1ccc(C)cc1 [Compound 002, 1-(3-(tert-butyl)-1-(p-tolyl)-1H-pyrazol-5-yl)-3-(2-(methylthio)-4-((7-oxo-5,6,7,8-tetrahydro-1,8-naphthyridin-4-yl)oxy)phenyl)urea] | ++ (50% ≤ cytotoxicity < 85%) | ++ (50% ≤ cytotoxicity < 85%) | 1 to 5 | 1 to 5 | 1 to 5 | +++ (cytotoxicity ≥ 85%) | 1 to 5 | ++ (50% ≤ cytotoxicity < 85%) | 0.01 to 0.1 | +++ (cytotoxicity ≥ 85%) | < 0.1 | +++ (angiogenesis inhibition ≥ 80%) | – |
| CSc1cc(Oc2ccnc3c2OCC(=O)N3)ccc1NC(=O)Nc1cc(C(C)(C)C)nn1-c1ccc(F)cc1F [Compound 031, 1-[5-tert-butyl-2-(2,4-difluorophenyl)pyrazol-3-yl]-3-[2-methylsulfanyl-4-[(3-oxo-4H-pyrido[3,2-b][1,4]oxazin-8-yl)oxy]phenyl]urea] | ++ (50% ≤ cytotoxicity < 85%) | ++ (50% ≤ cytotoxicity < 85%) | 1 to 5 | 1 to 5 | 1 to 5 | +++ (cytotoxicity ≥ 85%) | 1 to 5 | ++ (50% ≤ cytotoxicity < 85%) | 0.001 to 0.01 | +++ (cytotoxicity ≥ 85%) | 0.1 to 0.5 | +++ (angiogenesis inhibition ≥ 80%) | – |
| CC(C)(C)c1cc(NC(=O)Nc2ccc(Oc3ccnc4c3CCC(=O)N4)cc2C(F)(F)F)no1 [Compound 024, 1-(5-tert-butylisoxazol-3-yl)-3-[4-[(7-oxo-6,8-dihydro-5H-1,8-naphthyridin-4-yl)oxy]-2-(trifluoromethyl)phenyl]urea] | ++ (50% ≤ cytotoxicity < 85%) | ++ (50% ≤ cytotoxicity < 85%) | 1 to 5 | 1 to 5 | 1 to 5 | ++ (50% ≤ cytotoxicity < 85%) | 1 to 5 | ++ (50% ≤ cytotoxicity < 85%) | 0.001 to 0.01 | +++ (cytotoxicity ≥ 85%) | 0.1 to 0.5 | ++ (80% > angiogenesis inhibition ≥ 50%) | – |
| CNC(=O)c1cc(Oc2ccc(NC(=O)Nc3ccc(Cl)c(C(F)(F)F)c3)cc2)ccn1 [Sorafenib, reference compound] | – | – | – | – | – | – | – | – | – | – | – | – | Cytotoxicity (RD cells; [1]): ++ (50 % ≤ cytotoxicity < 85 %); Cytotoxicity (RD cells; [2]): ++ (50 % ≤ cytotoxicity < 85 %); IC50 (RD cells; [3]): ≥ 10 µM; IC50 (RD cells; [4]): 5 to 10 µM; IC50 (4T1 cells; commercial kinase inhibitors): 5 to 10 µM; Cytotoxicity (4T1 cells; commercial kinase inhibitors): + (20 % ≤ cytotoxicity < 50 %); IC50 (MDA-MB-231 cells; commercial kinase inhibitors): 5 to 10 µM; Cytotoxicity (MDA-MB-231 cells; commercial kinase inhibitors): +++ (cytotoxicity ≥ 85 %); IC50 (EoL-1 cells; commercial kinase inhibitors): < 0.001 µM; Cytotoxicity (EoL-1 cells; commercial kinase inhibitors): +++ (cytotoxicity ≥ 85%); IC50 (HUVECs; commercial kinase inhibitors): < 0.1 µM; Angiogenesis inhibition (HUVECs; commercial kinase inhibitors): + (50% > angiogenesis inhibition ≥ 20%) |
| CC(C)(C)c1cc(NC(=O)Nc2ccc(Oc3ccnc4c3CCC(=O)N4)cc2C(F)(F)F)n(-c2cccc(CN3CCOCC3)c2)n1 [Compound 045, 1-[5-tert-butyl-2-[3-(morpholinomethyl)phenyl]pyrazol-3-yl]-3-[4-[(7-oxo-6,8-dihydro-5H-1,8-naphthyridin-4-yl)oxy]-2-(trifluoromethyl)phenyl]urea] | + (20 % ≤ cytotoxicity < 50%) | + (20 % ≤ cytotoxicity < 50%) | 5 to 10 | 5 to 10 | < 1 | +++ (cytotoxicity ≥ 85%) | 1 to 5 | ++ (50% ≤ cytotoxicity < 85%) | 0.01 to 0.1 | ++ (50% ≤ cytotoxicity < 85%) | 0.1 to 0.5 | +++ (angiogenesis inhibition ≥ 80%) | – |
| CNC(=O)c1cc(Oc2ccc(NC(=O)Nc3ccc(Cl)c(C(F)(F)F)c3)c(F)c2)ccn1 [Regorafenib, reference compound] | – | – | – | – | – | – | – | – | – | – | – | – | Cytotoxicity (RD cells; [1]): + (20 % ≤ cytotoxicity < 50 %); Cytotoxicity (RD cells; [2]): + (20 % ≤ cytotoxicity < 50 %); IC50 (RD cells; [3]): 5 to 10 µM; IC50 (RD cells; [4]): 1 to 5 µM; IC50 (4T1 cells; commercial kinase inhibitors): 5 to 10 µM; Cytotoxicity (4T1 cells; commercial kinase inhibitors): ++ (50 % ≤ cytotoxicity < 85 %); IC50 (MDA-MB-231 cells; commercial kinase inhibitors): 1 to 5 µM; Cytotoxicity (MDA-MB-231 cells; commercial kinase inhibitors): ++ (50 % ≤ cytotoxicity < 85 %); IC50 (EoL-1 cells; commercial kinase inhibitors): 0.001 to 0.01 µM; Cytotoxicity (EoL-1 cells; commercial kinase inhibitors): +++ (cytotoxicity ≥ 85%); IC50 (HUVECs; commercial kinase inhibitors): < 0.1 µM; Angiogenesis inhibition (HUVECs; commercial kinase inhibitors): ++ (80% > angiogenesis inhibition ≥ 50%) |
| CSc1cc(Oc2ccnc3c2CCC(=O)N3)ccc1NC(=O)Nc1cc(C(C)(C)C)on1 [Compound 026, 1-(5-tert-butylisoxazol-3-yl)-3-[2-methylsulfanyl-4-[(7-oxo-6,8-dihydro-5H-1,8-naphthyridin-4-yl)oxy]phenyl]urea] | ++ (50% ≤ cytotoxicity < 85%) | ++ (50% ≤ cytotoxicity < 85%) | 1 to 5 | 1 to 5 | 1 to 5 | +++ (cytotoxicity ≥ 85%) | 1 to 5 | ++ (50% ≤ cytotoxicity < 85%) | < 0.001 | +++ (cytotoxicity ≥ 85%) | 0.1 to 0.5 | +++ (angiogenesis inhibition ≥ 80%) | – |
